{
  "source": "patent US6833364B1",
  "about": "“Substituted pyrazole derivatives” (Bayer HealthCare AG, priority 1998, dated 2004)",
  "key": {"anaesthetized rats": {"system": "anaesthetized rats", "assay": "Blood pressure measurements in anaesthetized rats", "assay_type": "in vivo", "conditions": "anaesthetized male Wistar rats", "method": "Blood Pressure Measurements in Anaesthetized Rats\nMale Wistar rats having a bodyweight of 300-350 g are anaesthetized with Thiopental (100 mg/kg i.p.). After tracheotomy, a catheter is inserted into the femoral artery for blood pressure measurement. The substances to be tested are administered orally in Transcutol, Cremophor EL, H2O (10%/20%/70%) in a volume of 1 ml/kg."}, "awake rabbits": {"system": "awake rabbits", "assay": "Erection-promoting action of guanylate cyclase stimulators in awake rabbits", "assay_type": "in vivo, chinchilla rabbits", "conditions": "for Erection-promoting effect, +SNP i.v.: with sodium nitroprusside 0.2 mg/kg i.v. simultaneously; for Erection-promoting effect, +SNP po: sodium nitroprusside 0.2 mg/kg i.v. 30 min later", "description": "For a complete and lasting erection to occur, the cavernous arteries and the entire cavernous body architecture, which is formed by a network of smooth muscle cells and collagen connective tissue, has to be at maximum dilation so that the corpus cavernosum can fill completely with blood (Anderson K.-E. and Wagner G., “Physiology of Penile Erection.”. Physiological Reviews 75, 191-236 (1995); Meinhardt W. Kropmann R F, Vermeig P, Lycclama a Nigelholt and Zwartendijk J. “The Influence of Medication on Erectile dysfunction.” Int. J. of Impotence Res. 9, 17-26 (1997). Relaxation of smooth muscles is mediated by NO which, in the case of sexual stimulation, is released by non-adrenergic, non-cholinergic nerve fibres in the endothelial cells of the blood vessels of the corpus cavernosum. NO activates guanylate cyclase, and the resulting increase in cGMP leads to dilation of the smooth muscles of the corpus cavernosum and consequently to an erection. To test the efficacy of the substances according to the invention, awake rabbits were used. The species rabbit was chosen since neurophysiology, haemodynamic and the control of contraction and relaxation of the smooth muscles of the corpus cavernosum of rabbit and man are quite similar (Meyer M F, Taher H., Krah H., Staubesand J., Becker A J, Kircher M, Mayer B., Jonas U., Forsmann W G., Stief Ch.G. “Intracavenous Application of SIN-1 in Rabbit and Man: Functional and Toxcological Results.” Annals Urol. 27, 179-182 (1993); Taub H C, Lerner S E, Melman A, Christ G J “Relationship between contraction and relaxation in human and rabbit corpus cavernosum.” Urology 42, 698-671, (1993).\nAdult male chinchilla rabbits having a weight of 3-5 kg are, after delivery, adapted for several days in isolation. They have free access to water and can feed for two hours per day. The animals are kept in a 10/14 hour day/night rhythm (light switched on from 8.00 hours onwards). The room temperature is 22-24° C.\nThe animals are weighed directly before the start of the experiment. For intravenous administration, the substances according to the invention were dissolved in a mixture of Transcutol (GATTEFOSSE GmbH ) diluted with 20% Cremophor (BASF) and water in a ratio of 3/7. Sodium nitroprusside was dissolved in 0.9% NaCl. The substances were injected at the dosages stated in the table in a volume of 0.5 ml/kg into the auricular vein. For oral administration, the test substances were dissolved in a mixture of glycerol: water: polyethylene glycol 6:10:9.69 and administered at the dosages stated in the table in a volume of 1 ml/kg using the stomach tube.\nThe effect of guanylate cyclase stimulators is increased by NO donors.\nThe sodium nitroprusside was injected into the auricular vein at a dosage of 0.2 mg/kg simultaneously with the substance according to the invention. If the substance according to the invention was administered orally, the sodium nitroprusside was injected into the auricular vein of these animals 30 min after the oral administration. Corresponding controls were carried out using the solvent and using sodium nitroprusside on its own.\nAt rest, the penis of the rabbit is not visible in the pubic region and is covered completely by the sheath. The erection is assessed by measuring the length of the protruding penis with a calliper square. Measurements are carried out 5, 10, 15, 30, 45, 60, 120 and 180 min. after the administration of the substance. The effect is calculated as the product of the length of the penis which is not covered by fur in [mm] and the time for which the erection persists in [min].\nThe substances were administered in the dosages stated. The sodium nitroprusside was in each case administered i.v., at 0.2 mg/kg. If the substance according to the invention was administered i.v., the sodium nitroprusside was administered simultaneously, if the substance according to the invention was administered orally, it was administered 30 min later. […]"}, "rabbit aortal rings": {"system": "rabbit aortal rings", "assay": "Vasorelaxant action in vitro, aortal rings contracted with phenylephrine", "conditions": "Oryctolagus cuniculus; rabbit aorta rings, phenylephrine contraction; read-out: IC50 (concentration reducing height of phenylephrine contraction by 50%)", "method": "Vasorelaxant Action in vitro\nRabbits are anaesthetized by a blow to the neck and exanguinated. The aorta is removed, freed from adhering tissue, divided into 1.5 mm wide rings and individually transferred under a pretension into 5 ml organ baths containing a warm, carbogen-aerated Krebs-Henseleit solution at 37° C. of the following composition (mM): NaCl: 119; KCl: 4.8; CaCl2×2 H2O: 1; MgSO4×7 H2O; 1.4; KH2PO4: 1.2; NaHCO3: 25; glucose: 10. The contractility is detected using Statham UC2 cells, amplified and digitalized by means of A/D converters (DAS-1802 HC, Keithley Instruments Munich), and recorded in parallel on linear recorders. To produce a contraction, phenylephrin is added to the bath cumulatively in increasing concentration. After several control cycles, the substance to be investigated is investigated in each further passage in increasing dosage in each case, and the height of the contraction is compared with the height of the contraction achieved in the last preliminary passage. From this, the concentration which is necessary in order to reduce the height of the control value by 50% (IC50) is calculated. The standard administration volume is 5 μl, and the proportion of DMSO in the bath solution corresponds to 0.1%."}, "[1]": {"system": "soluble guanylate cyclase", "assay": "Stimulation of soluble guanylate cyclase in primary endothelial cells (intracellular cGMP)", "assay_type": "cell-based", "conditions": "pig aortic primary endothelial cells, 10 min", "method": "Stimulation of Soluble Guanylate Cyclase in Primary Endothelial Cells\nPrimary endothelial cells were isolated from pig aortas by treatment with collagenase soln. The cells were then cultured in culture medium at 37 °C./5% CO2 until confluence was reached. For the investigations, the cells were passaged, inoculated into 24-well cell culture plates and subcultured until reaching confluence (˜2×10^5 cells/well). For the stimulation of endothelial guanylate cyclase, the culture medium was aspirated and the cells were washed once with Ringer solution. After removing the Ringer solution, the cells were incubated for 10 minutes, at 37° C./5% CO2 in stimulation buffer. […] After a further 10 minutes the buffer solution was aspirated and cold buffer at 4° C. was added to the cells. The cells were then lysed at −20° C. for 16 hours. The supernatants containing the intracellular cGMP were then removed and the cGMP concentration was determined by means of the cGMP-SPA system (Amersham Buchler, Brunswick)."}, "[2]": {"system": "human platelets stimulated with collagen", "assay": "Inhibition of platelet aggregation in vitro (collagen-induced)", "assay_type": "cell-based", "conditions": "10 min, washed human platelets, 10 min incubation at 37° C.", "method": "To determine the cardiovascular action, the following investigations were carried out: In in vitro investigations on the isolated enzyme and on cells of vascular origin, the effect on guanylate cyclase-dependent cGMP formation was tested with and without NO donor. The anti-aggregatory properties were shown on human platelets stimulated with collagen. The vasorelaxant action was determined in rabbit aortal rings preconcentrated with phenylephrine. The hypotensive action was investigated in anaesthetized and awake rats.\nTo determine the platelet-aggregation, blood from healthy volunteers of both sexes was used. As an anticoagulant, 9 parts of blood were admixed to one part of 3.8% strength sodium citrate solution. The blood was centrifuged at 900 rpm for 20 min. The pH of the platelet-rich plasma obtained was adjusted to pH 6.5 using ACD solution (sodium citrate/citric acid/glucose). The platelets were subsequently centrifuged off and resuspended in buffer and once more centrifuged off. The platelet pellet was suspended in buffer and mixed with an additional 2 mmol/l of CaCl2.\nTo measure the aggregation, aliquots of the platelet suspension were incubated with the substance to tested at 37° C. for 10 min."}},
  "data": [
    {"smiles": "Nc1nc(-c2nn(Cc3ccccc3F)c3ncccc23)ncc1C1CCC1", "note": "[Example 2, 3-(4-Amino-5-cyclobutylpyrimidin-2-yl)-1-(2-fluorobenzyl)-1H-pyrazolo[3,4-b]pyridine]", "values": [
      {"measurement": "melting point", "value": 214, "unit": "°C"}
    ]},
    {"smiles": "Nc1nc(-c2nn(Cc3ccccc3F)c3ncccc23)ncc1C1CC1", "note": "[Example 1, 3-(4-Amino-5-cyclopropylpyrimidin-2-yl)-1-(2-fluorobenzyl)-1H-pyrazolo[3,4-b]pyridine]", "values": [
      {"measurement": "Max. reduction in blood pressure", "setting": "anaesthetized rats; 1 mg/kg p.o.", "value": 23, "unit": "mm Hg"},
      {"measurement": "Time (of max. reduction in blood pressure)", "setting": "anaesthetized rats; 1 mg/kg p.o.", "value": 20, "unit": "min"},
      {"measurement": "Max. reduction in blood pressure", "setting": "anaesthetized rats; 3 mg/kg p.o.", "value": 37, "unit": "mm Hg"},
      {"measurement": "Time (of max. reduction in blood pressure)", "setting": "anaesthetized rats; 3 mg/kg p.o.", "value": 40, "unit": "min"},
      {"measurement": "Erection-promoting effect, +SNP i.v.", "setting": "awake rabbits; 0.3 mg/kg i.v.", "value": "140 [mm] × [min]"},
      {"measurement": "Erection-promoting effect, +SNP i.v.", "setting": "awake rabbits; 1 mg/kg i.v.", "value": "369 [mm] × [min]"},
      {"measurement": "Erection-promoting effect, +SNP po", "setting": "awake rabbits; 1 mg/kg po", "value": "184 [mm] × [min]"},
      {"measurement": "Erection-promoting effect, +SNP po", "setting": "awake rabbits; 3 mg/kg po", "value": "233 [mm] × [min]"},
      {"measurement": "Erection-promoting effect, +SNP po", "setting": "awake rabbits; 10 mg/kg po", "value": "375 [mm] × [min]"},
      {"measurement": "Erection-promoting effect, +SNP po", "setting": "awake rabbits; 30 mg/kg po", "value": "804 [mm] × [min]"},
      {"measurement": "Erection-promoting effect, −SNP po", "setting": "awake rabbits; 30 mg/kg po, without sodium nitroprusside", "value": "418 [mm] × [min]"},
      {"measurement": "IC50", "setting": "rabbit aortal rings", "value": 200, "unit": "nM"},
      {"measurement": "cGMP", "setting": "[1]; concentration 0.1 μM", "value": 2.2, "unit": "pmol/well"},
      {"measurement": "cGMP", "setting": "[1]; concentration 0.3 μM", "value": 4.0, "unit": "pmol/well"},
      {"measurement": "cGMP", "setting": "[1]; concentration 1.0 μM", "value": 6.9, "unit": "pmol/well"},
      {"measurement": "cGMP", "setting": "[1]; concentration 3.0 μM", "value": 8.5, "unit": "pmol/well"},
      {"measurement": "cGMP", "setting": "[1]; concentration 10 μM", "value": 14.6, "unit": "pmol/well"},
      {"measurement": "IC50", "setting": "[2]", "value": 3, "unit": "nM"}
    ]},
    {"smiles": "Nc1nc(-c2nn(Cc3ccccc3F)c3ncccc23)ncc1C1CCCC1", "note": "[Example 3, 3-(4-Amino-5-cyclopentylpyrimidin-2-yl)-1-(2-fluorobenzyl)-1H-pyrazolo[3,4-b]pyridine]", "values": [
      {"measurement": "melting point", "value": 208, "unit": "°C"}
    ]},
    {"smiles": "Nc1nc(-c2nn(Cc3ccccc3F)c3ncccc23)ncc1C1CCCCC1", "note": "[Example 4, 3(4-Amino-5-cyclohexylpyrimidin-2-yl)-1-(2-fluorobenzyl)-1H-pyrazolo[3,4-b]pyridine]", "values": [
      {"measurement": "melting point", "value": 213, "unit": "°C"}
    ]}
  ]
}
